According to ChEMBL document CHEMBL6178009, “Targeted Degradation of BCL6 Using Novel Bifunctional Degraders: A New Therapeutic Strategy for BCL6-Positive Cancers” (ACS Med Chem Lett, 2025):

Experiments:
[1] = target: Protein cereblon/B-cell lymphoma 6 protein (Homo sapiens, UniProt P41182+Q96SW2); test: PROTAC activity at CRBN/N-terminal HiBit-tagged BCL6 in human HT-1080 cells transfected with pLV-UBC-N-HiBiT- BCL6-PGK-puro assessed as degradation of BCL6 incubated for 5 hrs by luminescence based NANO-Glo HIBiT lytic detection assay; format: cell-based
[2] = target: Protein cereblon/B-cell lymphoma 6 protein (Homo sapiens) (UniProt Q96SW2+P41182); test: PROTAC activity at CRBN/N-terminal HiBit-tagged BCL6 in human HT-1080 cells transfected with pLV-UBC-N-HiBiT- BCL6-PGK-puro assessed as degradation of BCL6 by measuring ratio of trough concentration of protein in cell compared to the concentration of protein before the cell contact with compound (Ymin) incubated for 5 hrs by luminescence based NANO-Glo HIBiT lytic detection assay relative to control

Compound	EC50 [1]	Emin [2]
CNC(=O)COc1cc2cc(Nc3nc(N4CCN(CC5CCN(c6ccc7c(C8CCC(=O)NC8=O)nn(C)c7c6)CC5(F)F)C(C)C4)ncc3Cl)cnc2n(C(C)C)c1=O (configuration not stated)	≤ 0.025 µM	30%
CNC(=O)COc1cc2cc(Nc3nc(N4CC[C@@H](CN5CCN(c6cccc7c(C8CCC(=O)NC8=O)nn(C)c67)CC5)[C@@H](C)C4)ncc3Cl)cc3c2n(c1=O)CCO3 (some centres not stated)	≤ 0.025 µM	< 30%
CNC(=O)COc1cc2cc(Nc3nc(N4CCN(CC5CCN(c6cccc7c(C8CCC(=O)NC8=O)nn(C)c67)CC5)CC4)ncc3Cl)cc3c2n(c1=O)CCO3 (configuration not stated)	≤ 0.025 µM	< 30%
CNC(=O)COc1cc2cc(Nc3nc(N4CCC(CN5CCC(c6ccc7c(C8CCC(=O)NC8=O)nn(C)c7c6F)CC5)CC4)ncc3Cl)cc3c2n(c1=O)[C@@H](C)CO3 (some centres not stated)	≤ 0.025 µM	< 30%
CNC(=O)COc1cc2cc(Nc3nc(N4CCC5(CC4)CCN([C@H](C)C4CCN(c6ccc7c(C8CCC(=O)NC8=O)nn(C)c7c6)CC4)CC5)ncc3Cl)cnc2n(C)c1=O (some centres not stated)	≤ 0.025 µM	< 30%
CNC(=O)COc1cc2cc(Nc3nc(N4CCC5(CCN(CC6CCN(c7cc8c(cc7F)c(C7CCC(=O)NC7=O)nn8C)CC6)CC5)CC4)ncc3Cl)cnc2n(C)c1=O (configuration not stated)	≤ 0.025 µM	< 30%
